From patent US9856250B2, “Substituted tropane derivatives” (TOA EIYO LTD., priority 2014, dated 2018) come the findings set out here.

Where two headings read alike, the source gives them in different places.

The subject of data set [1] is Salmonella typhimurium TA98 and TA100. The data set is described as follows: Reverse mutation test (Ames test), pre-incubation method. The format is cell-based. As to conditions: strains TA98 and TA100; for Ames test S9 (−): absence of metabolic activation system (S9mix (−)); for Ames test S9 (+): presence of metabolic activation system (rat liver S9mix (+)). As to the method:
The presence or absence of genotoxicity in the compounds of the present invention was evaluated by a reverse mutation test (Ames test) using bacteria. The test was performed by a pre-incubation method using two bacterial strains of Salmonella typhimurium TA98 and TA100, in the absence of a metabolic activation system (S9mix (−)) and in the presence of a metabolic activation system (S9mix (+)). The compounds were dissolved in dimethyl sulfoxide (DMSO), and thus test liquids were prepared. Regarding the negative control, the solvent DMSO was used. Regarding the positive control, 2-(2-furyl)-3-(5-nitro-2-furyl)acrylamide (AF-2) was used for S9mix (−), and 2-aminoanthracene (2-AA) was used for S9mix (+).
0.1 mL of a test liquid was introduced into a sterilized test tube, and then 0.5 mL of a 0.1 mol/L sodium phosphate buffer solution (pH 7.4) was added to the test tube in the case of S9mix (−), or 0.5 mL of rat liver S9mix was added to the test tube in the case of S9mix (+). Furthermore, 0.1 mL of a precultured test strain suspension was added to the test tube, and then the test strain was subjected to shaking culture for 20 minutes at 37° C. (preincubation). […] Subsequently, the content of the test tube was superposed on a minimum glucose agar medium plate and was spread evenly. The plate was cultured for 48 hours at 37° C. in a thermostat. After completion of culture, the number of reverse mutation colonies grown on the plate was measured using a colony counter. Regarding the determination, a case in which the number of reverse mutation colonies increased to twice or more of the number of colonies of the negative control, and concentration-dependency was recognized, was regarded as positive. […]
(The Ames test uses bacterial strains that need an amino acid and regain growth without it when mutated back.)

The target in data set [2] is human T-type calcium channels (human Cav3.2) (Homo sapiens (Human), UniProt O95180). As to the kind of experiment: Antagonistic activity against T-type calcium channels (Cav3.2), Fura2 intracellular calcium assay in HEK293 cells. Format: cell-based. As to the method:
For representative compounds of the present invention, the antagonistic activity against T-type calcium channels (Cav3.2) was examined by the Test Examples described below. For the respective tests, human embryo kidney cells (HEK293 cells) in which human T-type calcium channels (human Cav3.2) were stably expressed were used.
The HEK293 cells having human Cav3.2 stably expressed therein were cultured at 37° C. in Alpha-MEM, to which 10% (v/v) fetal bovine serum (FBS), penicillin (100 U/mL), streptomycin (100 μg/mL), and G418 ([…]) had been added. The cells were suspended in the culture liquid and were inoculated onto a 96-well plate. Subsequently, the cells were cultured for 48 hours. The culture liquid was removed, and the liquid was changed to S-MEM, to which 5% (v/v) FBS, calcium chloride (0.5 mmol/L), L-glutamine (2 mmol/L), L-alanine (8.9 ng/mL), L-asparagine (13.2 ng/mL), L-aspartic acid (1.33 ng/mL), L-glutamic acid (14.7 ng/mL), glycine (7.5 ng/mL), L-proline (11.5 ng/mL, L-serine (10.5 ng/mL), penicillin (100 U/mL), and streptomycin (100 μg/mL) had been added. The cells were cultured for another 24 hours. The culture liquid was removed again, and the cells were washed with an assay buffer (140 mmol/L sodium chloride, 5 mmol/L potassium chloride, 0.5 mmol/L magnesium chloride, 0.5 mmol/L calcium chloride, 10 mmol/L glucose, 0.4 mmol/L magnesium sulfate, 10 mmol/L HEPES, and […] sulfinpyrazone, pH 7.4) that had been kept warm at 37° C. Subsequently, an assay buffer prepared by dissolving Fura2-AM, which is a fluorescent Ca^2+ indicator, to a concentration of 5 μM, was added to the cells, and the system was incubated for 30 minutes at 37° C. The assay buffer having Fura2 dissolved therein was removed, and the cells were washed with the assay buffer. Subsequently, an assay buffer prepared by adding a test compound was added to the cells, and the system was incubated for 15 minutes. The plate was mounted on a fluorescence analyzer (FLEX STATION II, Molecular Devices, LLC), and the baseline was measured for 20 seconds. Subsequently, any change in the intracellular calcium concentration that was induced when an assay buffer prepared by adding 100 mmol/L calcium chloride was added to the cells, was measured (excited at 340 nm or 380 nm, and detected at 510 nm). The fluorescence intensity ratios obtainable at the respective wavelengths were calculated.
Meanwhile, the test compound solution was prepared by dissolving each test compound in DMSO to a concentration of 10 mmol/L, and then adjusting the concentration with the assay buffer so as to obtain the set concentration. For the control solution, DMSO was used instead of a test compound.
The inhibitory activity level (%) of a test compound was calculated by subtracting the average value of the fluorescence intensity ratio for a period of 0 to 20 seconds after initiation of measurement, from the average value of the fluorescence intensity ratio for a period of 45 to 50 seconds after initiation of measurement, taking the value obtained using the control solution as the maximum activity of Cav3.2, and comparing this value with the activity in the presence of the test compound.
Calculation of IC50 Value:
The inhibitory activity of each test compound was measured at concentrations of […], and the IC50 value was calculated using the curve fitting formula (Model 08: sigmoidal inhibition curve) of ASSAY EXPLORER (Symyx Technologies, Inc.).
Average of RFU value obtained for 25 to 30 seconds after the addition of a […] assay buffer after treatment with the control solution (for 45 to 50 seconds after the initiation of measurement). The RFU in the formula represents the Relative Fluorescence Unit.
In general terms: Calcium flux is commonly read through the fluorescence of an indicator in the cells.

Chain of human T-type calcium channels (human Cav3.2) (O95180 whole entry): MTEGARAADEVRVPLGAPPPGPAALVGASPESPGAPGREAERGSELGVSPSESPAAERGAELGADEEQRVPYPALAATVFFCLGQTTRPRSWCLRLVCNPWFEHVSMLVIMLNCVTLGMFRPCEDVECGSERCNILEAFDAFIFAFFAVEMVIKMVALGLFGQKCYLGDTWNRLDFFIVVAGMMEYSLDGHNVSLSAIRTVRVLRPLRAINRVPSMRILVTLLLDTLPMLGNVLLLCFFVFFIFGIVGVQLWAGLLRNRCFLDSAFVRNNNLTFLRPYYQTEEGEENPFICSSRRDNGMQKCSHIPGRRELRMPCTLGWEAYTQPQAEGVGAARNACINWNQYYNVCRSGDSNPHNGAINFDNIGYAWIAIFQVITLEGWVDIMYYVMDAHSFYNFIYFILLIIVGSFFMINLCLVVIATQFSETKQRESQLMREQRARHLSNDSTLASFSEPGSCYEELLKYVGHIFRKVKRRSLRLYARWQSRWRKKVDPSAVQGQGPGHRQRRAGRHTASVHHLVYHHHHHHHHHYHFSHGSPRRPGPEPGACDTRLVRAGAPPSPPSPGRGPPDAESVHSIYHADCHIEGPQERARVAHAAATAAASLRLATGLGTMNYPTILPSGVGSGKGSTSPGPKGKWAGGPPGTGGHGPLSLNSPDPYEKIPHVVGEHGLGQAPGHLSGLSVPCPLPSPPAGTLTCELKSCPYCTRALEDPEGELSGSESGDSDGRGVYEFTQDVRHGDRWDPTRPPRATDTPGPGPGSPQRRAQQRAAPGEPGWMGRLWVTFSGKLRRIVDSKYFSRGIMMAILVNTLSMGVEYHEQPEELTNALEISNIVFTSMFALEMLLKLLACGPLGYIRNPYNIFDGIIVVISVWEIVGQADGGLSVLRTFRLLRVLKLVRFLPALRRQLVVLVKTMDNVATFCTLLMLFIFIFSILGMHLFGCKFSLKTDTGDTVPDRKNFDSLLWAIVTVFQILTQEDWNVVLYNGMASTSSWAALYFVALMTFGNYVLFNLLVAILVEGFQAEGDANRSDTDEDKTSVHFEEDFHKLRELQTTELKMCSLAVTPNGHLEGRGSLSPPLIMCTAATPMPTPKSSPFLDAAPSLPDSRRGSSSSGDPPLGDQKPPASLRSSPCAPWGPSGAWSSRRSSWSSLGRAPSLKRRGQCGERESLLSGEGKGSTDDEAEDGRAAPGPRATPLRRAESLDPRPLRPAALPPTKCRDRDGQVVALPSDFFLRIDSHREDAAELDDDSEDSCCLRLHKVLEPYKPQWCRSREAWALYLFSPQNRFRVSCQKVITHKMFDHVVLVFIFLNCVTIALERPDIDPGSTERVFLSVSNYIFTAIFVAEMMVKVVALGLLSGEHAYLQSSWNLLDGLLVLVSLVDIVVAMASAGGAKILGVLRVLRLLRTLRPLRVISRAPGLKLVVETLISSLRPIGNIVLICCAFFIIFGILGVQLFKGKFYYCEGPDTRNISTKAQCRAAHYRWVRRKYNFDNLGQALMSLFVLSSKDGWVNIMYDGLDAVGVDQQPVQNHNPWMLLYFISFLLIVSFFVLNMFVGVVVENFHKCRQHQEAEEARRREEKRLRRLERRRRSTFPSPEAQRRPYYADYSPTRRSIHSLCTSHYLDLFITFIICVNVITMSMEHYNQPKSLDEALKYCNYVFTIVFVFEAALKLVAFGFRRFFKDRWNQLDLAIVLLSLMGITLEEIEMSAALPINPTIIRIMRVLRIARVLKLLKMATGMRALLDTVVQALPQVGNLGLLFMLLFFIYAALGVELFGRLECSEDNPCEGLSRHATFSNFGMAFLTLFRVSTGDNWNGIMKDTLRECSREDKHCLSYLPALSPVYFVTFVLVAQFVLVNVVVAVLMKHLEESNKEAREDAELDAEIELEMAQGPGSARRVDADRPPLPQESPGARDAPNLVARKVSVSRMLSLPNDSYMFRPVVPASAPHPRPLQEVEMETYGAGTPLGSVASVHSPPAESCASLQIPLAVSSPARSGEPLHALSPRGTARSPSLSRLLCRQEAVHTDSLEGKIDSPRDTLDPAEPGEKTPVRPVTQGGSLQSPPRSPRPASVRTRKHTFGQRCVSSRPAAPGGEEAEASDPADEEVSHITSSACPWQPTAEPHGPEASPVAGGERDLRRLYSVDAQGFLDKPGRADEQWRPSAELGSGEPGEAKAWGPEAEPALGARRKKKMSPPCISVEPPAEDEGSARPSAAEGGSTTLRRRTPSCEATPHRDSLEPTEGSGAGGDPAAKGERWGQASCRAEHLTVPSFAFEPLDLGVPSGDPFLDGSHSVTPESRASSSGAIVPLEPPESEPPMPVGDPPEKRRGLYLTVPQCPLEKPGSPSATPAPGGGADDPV

Consider `CC(C)(C)NC(=O)CN1[C@@H]2CC[C@H]1C[C@H](Cc1nc3c4c(ccc3[nH]1)OCCO4)C2` [Example 123, N-tert-Butyl-2-[(exo)-3-(5,6-dihydro-1H-[1,4]dioxino[2,3-e]benzimidazol-2-yl)methyl-8-azabicyclo[3.2.1]octan-8-yl]acetamide], for which, in data set [1], the “Ames test S9 (−)” value is listed as “Negative” and the “Ames test S9 (+)” value was “Negative”.
Take `CC(C)(C)NC(=O)CN1[C@@H]2CC[C@H]1C[C@H](CNC(=O)c1cc(F)cc(Cl)c1)C2` [Example 54]: in data set [1], the “Ames test S9 (−)” value is recorded as “Negative” and the “Ames test S9 (+)” value was “Negative”. Besides, the half-maximal inhibitory concentration (IC50) in data set [2] was 0.02 µM.
Take `Cc1cccc2[nH]c(CC3CCN(CC(=O)NC(C)(C)C)CC3)nc12` [Control Compound 1, N-tert-Butyl-2-[4-(4-methyl-1H-benzimidazol-2-yl)methylpiperidin-1-yl]acetamide, reference compound]: in data set [1], the “Ames test S9 (−)” value is on record as “Negative” and the “Ames test S9 (+)” value is given as “Positive”.
In the case of `COc1cccc2[nH]c(C[C@H]3C[C@H]4CC[C@@H](C3)N4CC(=O)NC(C)(C)C)nc12` [Example 145, N-tert-Butyl-2-[(endo)-3-(4-methoxy-1H-benzimidazol-2-yl)methyl-8-azabicyclo[3.2.1]octan-8-yl]acetamide], in data set [1], the “Ames test S9 (−)” value is “Negative” and the “Ames test S9 (+)” value was “Negative”. Further, in data set [2] (HEK293 cells stably expressing human Cav3.2, Fura2 fluorescence ratio after calcium chloride addition, read-out: IC50), the half-maximal inhibitory concentration (IC50) was 0.098 µM.
Take `COc1ccc2[nH]c(C[C@@H]3C[C@H]4CC[C@@H](C3)N4CC(=O)NC(C)(C)C)nc2c1OC` [Example 155]: in data set [1], the “Ames test S9 (−)” value is recorded as “Negative” and the “Ames test S9 (+)” value was “Negative”.
On to `COc1ccc(OC)c2[nH]c(C[C@@H]3C[C@H]4CC[C@@H](C3)N4CC(=O)NC(C)(C)C)nc12` [Example 172], for which, in data set [1], the “Ames test S9 (−)” value is reported as “Negative” and the “Ames test S9 (+)” value is recorded as “Negative”.
As for `Cc1cc(C(=O)NC[C@@H]2C[C@H]3CC[C@@H](C2)N3CC(=O)NC(C)(C)C)n(C)n1` [Example 174], in data set [1], the “Ames test S9 (−)” value is “Negative” and the “Ames test S9 (+)” value is on record as “Negative”.
`CC(C)(C)NC(=O)CN1[C@@H]2CC[C@H]1C[C@@H](CC(=O)NC13CC4CC(CC(C4)O1)C3)C2.Cl` [Example 152, 2-[(endo)-8-(tert-Butylcarbamoyl)methyl-8-azabicyclo[3.2.1]octan-3-yl]-N-(2-oxaadamantan-1-yl)acetamide hydrochloride]: in data set [1], the “Ames test S9 (−)” value is “Negative” and the “Ames test S9 (+)” value is recorded as “Negative”.
Regarding `COc1cccc2[nH]c(CC3CCN(CC(=O)NC(C)(C)C)CC3)nc12` [Control Compound 2, N-tert-Butyl-2-[4-(4-methoxy-1H-benzimidazol-2-yl)methylpiperidin-1-yl]acetamide, reference compound], in data set [1], the “Ames test S9 (−)” value is recorded as “Negative” and the “Ames test S9 (+)” value was “Positive”.
The corresponding values for `CC(C)(C)NC(=O)CN1CCC(Cc2nc3ccc4c(c3[nH]2)OCCO4)CC1.Cl.Cl` [Control Compound 3, N-tert-Butyl-2-[4-(5,6-dihydro-1H-[1,4]dioxino[2,3-e]benzimidazol-2-yl)methylpiperidin-1-yl]acetamide dihydrochloride, reference compound] are “Negative” and “Positive”.

The term IC50 denotes the midpoint of a concentration-inhibition curve.
